Reference: patent publication US6770596B1, “Fused tricyclic compounds, process for their preparation, and herbicidal compositions containing them” (Ishihara Sangyo Kaisha Ltd., priority 2002, dated 2004)

Key:
Type in all cases: in vivo
[1] = test system: ivyleaf morningglory (Ipomoea hederacea, IPH); experiment: Pre-emerge test, ivyleaf morningglory; details: 250 g ai/ha, 14 days after application, rating scale 0-100 (0 no damage, 100 complete death)
Method in brief: (§1)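 Greenhouse pre-emergence screen: track-sprayer application of compounds in acetone at 187 l/ha, rates 8 g ai/ha to 1000 g ai/ha, one day after planting in sandy loam pots. Damage scored at 14 days, 0 (none) to 100 (all plants dead).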

[2] = test system: ivyleaf morningglory (Ipomoea hederacea, IPH); experiment: Post-emerge test, ivyleaf morningglory; details: 250 g ai/ha, 14 days after application, rating scale 0-100 (0 no damage, 100 complete death)
Method in brief: (§2)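 Post-emergence spray, 8-1000 g ai/ha in acetone at 187 l/ha with 0.25% v/v non-ionic surfactant, applied to 2-3 leaf plants. Pots of sandy loam mix, greenhouse. Visual 0-100 injury rating at 14 DAT.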

[3] = test system: redroot pigweed (Amaranthus retroflexus, AMR); experiment: Pre-emerge test, redroot pigweed; details: 250 g ai/ha, 14 days after application, rating scale 0-100 (0 no damage, 100 complete death)
Method in brief: as §1

[4] = test system: common ragweed (Ambrosia artemisiifolia L., AML); experiment: Post-emerge test, common ragweed; details: 250 g ai/ha, 14 days after application, rating scale 0-100 (0 no damage, 100 complete death)
Method in brief: as §2

[5] = test system: velvetleaf (Abutilon theophrasti, ABT); experiment: Pre-emerge test, velvetleaf; details: 250 g ai/ha, 14 days after application, rating scale 0-100 (0 no damage, 100 complete death)
Method in brief: as §1

[6] = test system: redroot pigweed (Amaranthus retroflexus, AMR); experiment: Post-emerge test, redroot pigweed; details: 250 g ai/ha, 14 days after application, rating scale 0-100 (0 no damage, 100 complete death)
Method in brief: as §2

[7] = test system: large crabgrass (Digitaria sanguinalis, DIS); experiment: Pre-emerge test, large crabgrass; details: 250 g ai/ha, 14 days after application, rating scale 0-100 (0 no damage, 100 complete death)
Method in brief: as §1

[8] = test system: sicklepod (Cassia obtusifolia, CAO); experiment: Pre-emerge test, sicklepod; details: 250 g ai/ha, 14 days after application, rating scale 0-100 (0 no damage, 100 complete death)
Method in brief: as §1

[9] = test system: barnyardgrass (Echinachloa crus-galli, ECC); experiment: Post-emerge test, barnyardgrass; details: 250 g ai/ha, 14 days after application, rating scale 0-100 (0 no damage, 100 complete death)
Method in brief: as §2

[10] = test system: johnsongrass (Sorghum halepense, SOH); experiment: Pre-emerge test, johnsongrass; details: 250 g ai/ha, 14 days after application, rating scale 0-100 (0 no damage, 100 complete death)
Method in brief: as §1

[11] = test system: johnsongrass (Sorghum halepense, SOH); experiment: Post-emerge test, johnsongrass; details: 250 g ai/ha, 14 days after application, rating scale 0-100 (0 no damage, 100 complete death)
Method in brief: as §2

[12] = test system: upland rice (Oryza sp., var.Tebonnet, RICE); experiment: Pre-emerge test, crop damage upland rice; details: pre-emerge, 250 g ai/ha, 14 days after application, rating scale 0-100 (0 no damage, 100 complete death)
Method in brief: as §1

[13] = test system: upland rice (Oryza sp., var.Tebonnet, RICE); experiment: Post-emerge test, crop damage upland rice; details: post-emerge, 250 g ai/ha, 14 days after application, rating scale 0-100 (0 no damage, 100 complete death)
Method in brief: as §2

[14] = test system: field corn (Zea mays L., var. Dekalb 535, CORN); experiment: Pre-emerge test, crop damage field corn; details: pre-emerge, 250 g ai/ha, 14 days after application, rating scale 0-100 (0 no damage, 100 complete death)
Method in brief: as §1

[15] = test system: barnyardgrass (Echinachloa crus-galli, ECC); experiment: Pre-emerge test, barnyardgrass; details: 250 g ai/ha, 14 days after application, rating scale 0-100 (0 no damage, 100 complete death)
Method in brief: as §1

[16] = test system: field corn (Zea mays L., var. Dekalb 535, CORN); experiment: Post-emerge test, crop damage field corn; details: post-emerge, 250 g ai/ha, 14 days after application, rating scale 0-100 (0 no damage, 100 complete death)
Method in brief: as §2

[17] = test system: lambsquarters (Chenopodium album, CHA); experiment: Post-emerge test, lambsquarters; details: 250 g ai/ha, 14 days after application, rating scale 0-100 (0 no damage, 100 complete death)
Method in brief: as §2

[18] = test system: wheat (Triticum aestivum); experiment: Pre-emerge test, crop damage wheat; details: pre-emerge, 250 g ai/ha, 14 days after application, rating scale 0-100 (0 no damage, 100 complete death)
Method in brief: as §1

[19] = test system: soybean (Glycine max L., var. Pella 86, SOY); experiment: Pre-emerge test, crop damage soybean; details: pre-emerge, 250 g ai/ha, 14 days after application, rating scale 0-100 (0 no damage, 100 complete death)
Method in brief: as §1

[20] = test system: velvetleaf (Abutilon theophrasti, ABT); experiment: Post-emerge test, velvetleaf; details: 250 g ai/ha, 14 days after application, rating scale 0-100 (0 no damage, 100 complete death)
Method in brief: as §2

[21] = test system: sicklepod (Cassia obtusifolia, CAO); experiment: Post-emerge test, sicklepod; details: 250 g ai/ha, 14 days after application, rating scale 0-100 (0 no damage, 100 complete death)
Method in brief: as §2

[22] = test system: cocklebur (Xanthium strumariunt, XAS); experiment: Post-emerge test, cocklebur; details: 250 g ai/ha, 14 days after application, rating scale 0-100 (0 no damage, 100 complete death)
Method in brief: as §2

[23] = test system: soybean (Glycine max L., var. Pella 86, SOY); experiment: Post-emerge test, crop damage soybean; details: post-emerge, 250 g ai/ha, 14 days after application, rating scale 0-100 (0 no damage, 100 complete death)
Method in brief: as §2

[24] = test system: lambsquarters (Chenopodium album, CHA); experiment: Pre-emerge test, lambsquarters; details: 250 g ai/ha, 14 days after application, rating scale 0-100 (0 no damage, 100 complete death)
Method in brief: as §1

[25] = test system: wheat (Triticum aestivum); experiment: Post-emerge test, crop damage wheat; details: post-emerge, 250 g ai/ha, 14 days after application, rating scale 0-100 (0 no damage, 100 complete death)
Method in brief: as §2

[26] = test system: cocklebur (Xanthium strumariunt, XAS); experiment: Pre-emerge test, cocklebur; details: 250 g ai/ha, 14 days after application, rating scale 0-100 (0 no damage, 100 complete death)
Method in brief: as §1

[27] = test system: large crabgrass (Digitaria sanguinalis, DIS); experiment: Post-emerge test, large crabgrass; details: 250 g ai/ha, 14 days after application, rating scale 0-100 (0 no damage, 100 complete death)
Method in brief: as §2

[28] = test system: green foxtail (Setaria viridis, SEV); experiment: Pre-emerge test, green foxtail; details: 250 g ai/ha, 14 days after application, rating scale 0-100 (0 no damage, 100 complete death)
Method in brief: as §1

[29] = test system: green foxtail (Setaria viridis, SEV); experiment: Post-emerge test, green foxtail; details: 250 g ai/ha, 14 days after application, rating scale 0-100 (0 no damage, 100 complete death)
Method in brief: as §2

[30] = test system: common ragweed (Ambrosia artemisiifolia L., AML); experiment: Pre-emerge test, common ragweed; details: 250 g ai/ha, 14 days after application, rating scale 0-100 (0 no damage, 100 complete death)
Method in brief: as §1

Compound | Pre-emerge Herbicidal Activity IPH (phytotoxicity rating) [1] | Post-emerge Herbicidal Activity IPH (phytotoxicity rating) [2] | Pre-emerge Herbicidal Activity AMR (phytotoxicity rating) [3] | Post-emerge Herbicidal Activity AML (phytotoxicity rating) [4] | Pre-emerge Herbicidal Activity ABT (phytotoxicity rating) [5] | Post-emerge Herbicidal Activity AMR (phytotoxicity rating) [6] | Pre-emerge Herbicidal Activity DIS (phytotoxicity rating) [7] | Pre-emerge Herbicidal Activity CAO (phytotoxicity rating) [8] | Post-emerge Herbicidal Activity ECC (phytotoxicity rating) [9] | Pre-emerge Herbicidal Activity SOH (phytotoxicity rating) [10] | Post-emerge Herbicidal Activity SOH (phytotoxicity rating) [11] | Pre-emerge crop damage RICE (phytotoxicity rating) [12] | Post-emerge crop damage RICE (phytotoxicity rating) [13] | Pre-emerge crop damage CORN (phytotoxicity rating) [14] | Pre-emerge Herbicidal Activity ECC (phytotoxicity rating) [15] | Post-emerge crop damage CORN (phytotoxicity rating) [16] | Post-emerge Herbicidal Activity CHA (phytotoxicity rating) [17] | Pre-emerge crop damage WHEAT (phytotoxicity rating) [18] | Pre-emerge crop damage SOY (phytotoxicity rating) [19] | Post-emerge Herbicidal Activity ABT (phytotoxicity rating) [20] | other results
CC(C)C1C(=O)Nc2c3c(cc(F)c2-n2c(=O)cc(C(F)(F)F)n(C)c2=O)OCC(=O)N31 (stereo not drawn) [1-77] | 100 | 75 | 100 | 0 | 100 | 25 | 100 | 90 | 0 | 99 | 0 | 99 | 35 | 100 | 100 | 0 | 90 | 99 | 100 | 50 | Post-emerge Herbicidal Activity CAO (phytotoxicity rating) [21]: 0; Post-emerge Herbicidal Activity XAS (phytotoxicity rating) [22]: 50; Post-emerge crop damage SOY (phytotoxicity rating) [23]: 10; Pre-emerge Herbicidal Activity CHA (phytotoxicity rating) [24]: 100; Post-emerge crop damage WHEAT (phytotoxicity rating) [25]: 0; Pre-emerge Herbicidal Activity XAS (phytotoxicity rating) [26]: 98; Post-emerge Herbicidal Activity DIS (phytotoxicity rating) [27]: 0; Pre-emerge Herbicidal Activity SEV (phytotoxicity rating) [28]: 100; Post-emerge Herbicidal Activity SEV (phytotoxicity rating) [29]: 0; Pre-emerge Herbicidal Activity AML (phytotoxicity rating) [30]: 100
CC(C)C1C(=O)Nc2c(N3C(=O)C4=C(CCCC4)C3=O)c(F)cc3c2N1C(=O)CO3 (stereo not drawn) [1-78] | 25 | 75 | 20 | 70 | 10 | 60 | 0 | 15 | 0 | 0 | 0 | 0 | 60 | 0 | 0 | 0 | 99 | 0 | 0 | 0 | Post-emerge Herbicidal Activity CAO (phytotoxicity rating) [21]: 0; Post-emerge Herbicidal Activity XAS (phytotoxicity rating) [22]: 80; Post-emerge crop damage SOY (phytotoxicity rating) [23]: 10; Pre-emerge Herbicidal Activity CHA (phytotoxicity rating) [24]: 70; Post-emerge crop damage WHEAT (phytotoxicity rating) [25]: 50; Pre-emerge Herbicidal Activity XAS (phytotoxicity rating) [26]: 0; Post-emerge Herbicidal Activity DIS (phytotoxicity rating) [27]: 0; Pre-emerge Herbicidal Activity SEV (phytotoxicity rating) [28]: 0; Post-emerge Herbicidal Activity SEV (phytotoxicity rating) [29]: 0; Pre-emerge Herbicidal Activity AML (phytotoxicity rating) [30]: 0
Cn1nc(-c2c(F)cc3c4c2NC(=O)C(Cl)N4C(=O)CO3)c(Cl)c1OC(F)F (stereo not drawn) [1-79] | 60 | 60 | 100 | 80 | 75 | 70 | 80 | 60 | 25 | 50 | 0 | 30 | 0 | 30 | 35 | 0 | 65 | 30 | 40 | 75 | Post-emerge Herbicidal Activity CAO (phytotoxicity rating) [21]: 0; Post-emerge Herbicidal Activity XAS (phytotoxicity rating) [22]: 0; Post-emerge crop damage SOY (phytotoxicity rating) [23]: 0; Pre-emerge Herbicidal Activity CHA (phytotoxicity rating) [24]: 100; Post-emerge crop damage WHEAT (phytotoxicity rating) [25]: 0; Pre-emerge Herbicidal Activity XAS (phytotoxicity rating) [26]: 65; Post-emerge Herbicidal Activity DIS (phytotoxicity rating) [27]: 0; Pre-emerge Herbicidal Activity SEV (phytotoxicity rating) [28]: 15; Post-emerge Herbicidal Activity SEV (phytotoxicity rating) [29]: 65; Pre-emerge Herbicidal Activity AML (phytotoxicity rating) [30]: 99
